Data on 22 molecules can be found in patent publication US20230373930A1, “AMINOIMIDAZOLE FPR2 AGONISTS” (BRISTOL-MYERS SQUIBB COMPANY, priority 2020, published 2023).

One assay has as its target T1, human FPR2 (Homo sapiens, UniProt P25090).
T1 sequence (P25090 1-351): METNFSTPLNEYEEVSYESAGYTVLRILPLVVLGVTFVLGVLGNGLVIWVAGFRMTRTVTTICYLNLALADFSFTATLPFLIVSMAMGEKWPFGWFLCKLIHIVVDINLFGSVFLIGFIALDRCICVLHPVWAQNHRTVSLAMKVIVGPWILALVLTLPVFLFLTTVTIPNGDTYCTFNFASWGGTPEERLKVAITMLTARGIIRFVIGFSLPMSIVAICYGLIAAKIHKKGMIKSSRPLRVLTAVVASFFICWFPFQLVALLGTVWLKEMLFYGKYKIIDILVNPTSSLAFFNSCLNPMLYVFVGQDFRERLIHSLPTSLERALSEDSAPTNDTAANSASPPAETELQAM
The experiment in a line: FPR2 cyclic adenosine monophosphate (cAMP) assay. Format: cell-based. Conditions: CHO cells overexpressing human FPR2; forskolin 5 μM; inhibition of cAMP production; HTRF; read-out: hFPR2 cAMP2 EC50. How it is done: (§1) FPR2 and FPR1 Cyclic Adenosine Monophosphate (cAMP) Assays. A mixture of forskolin (5 μM final for FPR2 or 10 μM final for FPR1) and IBMX (200 μM final) were added to 384-well Proxiplates (Perkin-Elmer) pre-dotted with test compounds in DMSO (1% final) at final concentrations in the range of 0.020 nM to 100 μM. Chinese Hamster Ovary cells (CHO) overexpressing human FPR1 or human FPR2 receptors were cultured in F-12 (Ham's) medium supplemented with 10% qualified FBS, 250 μg/ml zeocin and 300 μg/ml hygromycin (Life Technologies). Reactions were initiated by adding 2,000 human FPR2 cells per well or 4,000 human FPR1 cells per well in Dulbecco's PBS (with calcium and magnesium) (Life Technologies) supplemented with 0.1% BSA (Perkin-Elmer). The reaction mixtures were incubated for 30 min at room temperature. The level of intracellular cAMP was determined using the HTRF HiRange cAMP assay reagent kit (Cisbio) according to manufacturer's instruction. Solutions of cryptate conjugated anti-cAMP and d2 flurorophore-labelled cAMP were made in a supplied lysis buffer separately. Upon completion of the reaction, the cells were lysed with equal volume of the d2-cAMP solution and anti-cAMP solution. After a 1-h room temperature incubation, time-resolved fluorescence intensity was measured using the Envision (Perkin-Elmer) at 400 nm excitation and dual emission at 590 nm and 665 nm. A calibration curve was constructed with an external cAMP standard at concentrations ranging from 1 μM to 0.1 μM by plotting the fluorescent intensity ratio from 665 nm emission to the intensity from the 590 nm emission against cAMP concentrations. The potency and activity of a compound to inhibit cAMP production was then determined by fitting to a 4-parametric logistic equation from a plot of cAMP level versus compound concentrations.
(In general: Cyclic AMP is a second messenger, typically raised through Gs and lowered through Gi signalling.)

Another assay deals with T2, human FPR1 (Homo sapiens, UniProt P21462).
T2 sequence (P21462 1-350): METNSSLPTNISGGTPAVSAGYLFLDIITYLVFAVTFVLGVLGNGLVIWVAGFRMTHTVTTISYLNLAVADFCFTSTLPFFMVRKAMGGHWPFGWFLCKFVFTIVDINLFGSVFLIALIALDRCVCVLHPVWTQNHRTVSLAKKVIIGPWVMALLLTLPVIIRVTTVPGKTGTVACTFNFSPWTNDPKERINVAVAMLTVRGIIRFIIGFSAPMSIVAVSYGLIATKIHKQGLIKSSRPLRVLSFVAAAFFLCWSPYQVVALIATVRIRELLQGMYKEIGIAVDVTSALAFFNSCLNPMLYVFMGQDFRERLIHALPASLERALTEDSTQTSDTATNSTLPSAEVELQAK
Briefly: FPR1 cyclic adenosine monophosphate (cAMP) assay. Format: cell-based. Particulars: CHO cells overexpressing human FPR1; forskolin 10 μM; inhibition of cAMP production; HTRF; read-out: hFPR1 cAMP2 EC50. How it is done: as §1

Consider `COc1cc(F)c(-n2cc(-c3ccnc(Cl)c3)nc2NC(=O)c2ccc(OC(F)F)cc2)c(F)c1` [Example 34, N-[4-(2-Chloropyridin-4-yl)-1-(2,6-difluoro-4-methoxyphenyl)-1H-imidazol-2-yl]-4-(difluoromethoxy)benzamide], for which the EC50 on human FPR2 came to 0.016 µM; at human FPR1, 0.12 µM.
For `COc1cc(F)c(-n2cc(C(=O)N3CCNCC3)nc2NC(=O)c2ccc(OC(F)F)cc2)c(F)c1` [Example 61, N-[1-(2,6-Difluoro-4-methoxyphenyl)-4-(piperazine-1-carbonyl)-1H-imidazol-2-yl]-4-(difluoromethoxy)benzamide] the same measures were 0.13 µM and over 10 µM.
Taken in the same sequence, the figures for `COc1cc(F)c(-n2cc(C(=O)NC3CCC(O)CC3)nc2NC(=O)c2ccc(OC(F)F)cc2)c(F)c1` (centres unmarked) [Example 49, 1-(2,6-Difluoro-4-methoxyphenyl)-2-[4-(difluoromethoxy)benzamido]-N-(4-hydroxycyclohexyl)-1H-imidazole-4-carboxamide] were 0.09 µM and 0.75 µM.
For `COc1cc(F)c(-n2cc(C(=O)N3CCC[C@H]3CO)nc2NC(=O)c2ccc(OC(F)F)cc2)c(F)c1` [Example 50, N-[1-(2,6-Difluoro-4-methoxyphenyl)-4-[(2S)-2-(hydroxymethyl)pyrrolidine-1-carbonyl]-1H-imidazol-2-yl]-4-(difluoromethoxy)benzamide] the same measures were 0.077 µM and over 10 µM.
As for `COc1cc(F)c(-n2cc(Cc3nc4ncc(F)cc4[nH]3)nc2NC(=O)c2ccc(OC(F)F)cc2)c(F)c1` [Example 77, N-(1-(2,6-Difluoro-4-methoxyphenyl)-4-((6-fluoro-1H-imidazo[4,5-b]pyridin-2-yl)methyl)-1H-imidazol-2-yl)-4-(difluoromethoxy)benzamide], the results for the EC50 on human FPR2 and at human FPR1 were 0.013 µM and 0.12 µM, respectively.
Taken in the same sequence, the figures for `COc1cc(F)c(-n2cc(C3CC(NS(C)(=O)=O)C3)nc2NC(=O)c2ccc(OC(F)F)cc2)c(F)c1` (centres unmarked) [Example 83, N-[1-(2,6-difluoro-4-methoxyphenyl)-4-(3-methanesulfonamidocyclobutyl)-1H-imidazol-2-yl]-4-(difluoromethoxy)benzamide] were 0.005 µM and 0.4 µM.
Turning to `COc1cc(F)c(-n2cc(-c3ccc(C#N)cc3)nc2NC(=O)c2ccc(OC(F)F)cc2)c(F)c1` [Example 16, N-[4-(4-Cyanophenyl)-1-(2,6-difluoro-4-methoxyphenyl)-1H-imidazol-2-yl]-4-(difluoromethoxy)benzamide], the results for the EC50 on human FPR2 and at human FPR1 were 0.027 µM and 0.23 µM, respectively.
In the case of `COc1cc(F)c(-n2cc(C3CC3)nc2NC(=O)c2ccc(OC(F)F)cc2)c(F)c1` [Example 37, N-[4-Cyclopropyl-1-(2,6-difluoro-4-methoxyphenyl)-1H-imidazol-2-yl]-4-(difluoromethoxy)benzamide], the EC50 on human FPR2 stood at 0.016 µM; at human FPR1, 0.8 µM.
Taken in the same sequence, the figures for `COc1cc(F)c(-n2cc(C3CC(NCC(F)(F)F)C3)nc2NC(=O)c2ccc(OC(F)F)cc2)c(F)c1` (centres unmarked) [Example 82, N-(1-(2,6-Difluoro-4-methoxyphenyl)-4-(3-((2,2,2-trifluoroethyl)amino)cyclobutyl)-1H-imidazol-2-yl)-4-(difluoromethoxy)benzamide] were 0.01 µM and 0.085 µM.
For `COc1ccc(-n2cc(C(F)(F)C(F)(F)F)nc2NC(=O)c2ccc(OC(F)F)cc2)cc1` [Example 42, 4-(Difluoromethoxy)-N-[1-(4-methoxyphenyl)-4-(1,1,2,2,2-pentafluoroethyl)-1H-imidazol-2-yl]benzamide] the same measures were 0.048 µM and 0.057 µM.
For `CCOC(=O)Cc1cn(-c2c(F)cc(OC)cc2F)c(NC(=O)c2ccc(OC(F)F)cc2)n1` [Example 72, ethyl 2-[1-(2,6-difluoro-4-methoxyphenyl)-2-[4-(difluoromethoxy)benzamido]-1H-imidazol-4-yl]acetate] the same measures were 0.022 µM and 0.47 µM.
For the molecule `CCc1cn(-c2c(F)cc(OC)cc2F)c(NC(=O)c2ccc(OC(F)F)cc2)n1` [Example 39, N-[1-(2,6-Difluoro-4-methoxyphenyl)-4-ehtyl-1H-imidazol-2-yl]-4-(difluoromethoxy)benzamide], the EC50 amounted to 0.021 µM at human FPR2 and 1 µM on human FPR1.
For `COc1cc(F)c(-n2cc(-c3ccc(F)cc3)nc2NC(=O)c2ccc(OC(F)F)cc2)c(F)c1` [Example 4, N-[1-(2,6-Difluoro-4-methoxyphenyl)-4-(4-fluorophenyl)-1H-imidazol-2-yl]-4-(difluoromethoxy)benzamide] the same measures were 0.011 µM and 0.4 µM.
For `COc1cc(F)c(-n2cc(C(=O)NCc3cc[nH]n3)nc2NC(=O)c2ccc(OC(F)F)cc2)c(F)c1` [Example 44, 1-(2,6-Difluoro-4-methoxyphenyl)-2-[4-(difluoromethoxy)benzamido]-N-[(1H-pyrazol-3-yl)methyl]-1H-imidazole-4-carboxamide] the same measures were 0.048 µM and 0.37 µM.
For `COc1cc(F)c(-n2cc(C(=O)N3CCOCC3)nc2NC(=O)c2ccc(OC(F)F)cc2)c(F)c1` [Example 54, N-[1-(2,6-Difluoro-4-methoxyphenyl)-4-(morpholine-4-carbonyl)-1H-imidazol-2-yl]-4-(difluoromethoxy)benzamide] the same measures were 0.32 µM and over 10 µM.
On to `COc1cc(F)c(-n2cc(C3CNC3)nc2NC(=O)c2ccc(OC(F)F)cc2)c(F)c1` [Example 79, N-[4-(azetidin-3-yl)-1-(2,6-difluoro-4-methoxyphenyl)-1H-imidazol-2-yl]-4-(difluoromethoxy)benzamide], for which the half-maximal effective concentration (EC50) at human FPR2 amounted to 0.081 µM; on human FPR1, 4.2 µM.
Taken in the same sequence, the figures for `COc1cc(F)c(-n2cc(-c3ccc(Cl)cc3)nc2NC(=O)c2ccc(OC(F)F)cc2)c(F)c1` [Example 11, N-[4-(4-Chlorophenyl)-1-(2,6-difluoro-4-methoxyphenyl)-1H-imidazol-2-yl]-4-(difluoromethoxy)benzamide] were 0.024 µM and 0.14 µM.
For `COc1ccc(-n2cc(-c3ccc(F)cc3F)nc2NC(=O)c2ccc(OC(F)F)cc2)cc1` [Example 21, 4-(Difluoromethoxy)-N-[4-(2,4-difluorophenyl)-1-(4-methoxyphenyl)-1H-imidazol-2-yl]benzamide] the same measures were 0.029 µM and 0.076 µM.
For `COc1cc(F)c(-n2cc(C(=O)NCCO)nc2NC(=O)c2ccc(OC(F)F)cc2)c(F)c1` [Example 53, 1-(2,6-Difluoro-4-methoxyphenyl)-2-[4-(difluoromethoxy)benzamido]-N-(2-hydroxyethyl)-1H-imidazole-4-carboxamide] the same measures were 0.13 µM and 4.1 µM.
Consider `COc1ccc(-n2cc(C3CCCCC3)nc2NC(=O)c2ccc(OC(F)F)cc2)cc1` [Example 27, N-[4-Cyclohexyl-1-(4-methoxyphenyl)-1H-imidazol-2-yl]-4-(difluoromethoxy)benzamide], for which the EC50 on human FPR2 came out at 0.055 µM; on human FPR1, 0.66 µM.
Taken in the same sequence, the figures for `COc1cc(F)c(-n2cc(-c3cccc(C#N)c3)nc2NC(=O)c2ccc(OC(F)F)cc2)c(F)c1` [Example 17, N-[4-(3-Cyanophenyl)-1-(2,6-difluoro-4-methoxyphenyl)-1H-imidazol-2-yl]-4-(difluoromethoxy)benzamide] were 0.005 µM and 0.046 µM.
For `COc1ccc(-n2cc(C(=O)NCCCO)nc2NC(=O)c2ccc(OC(F)F)cc2)cc1` [Example 46, 2-[4-(Difluoromethoxy)benzamido]-N-(3-hydroxypropyl)-1-(4-methoxyphenyl)-1H-imidazole-4-carboxamide], the results for the EC50 at human FPR2 and at human FPR1 were 0.027 µM and 0.21 µM, respectively.

Broadly, the EC50 is the concentration giving half of the maximal effect.
